Data from patent US7834141B1, “Non-mammalian GnRH analogs and uses thereof in tumor cell growth regulation and cancer therapy” (priority 2000, dated 2010).
Where two headings read alike, the source gives them in different places. Where a SMILES comes first, the peptide text is derived from it.

What was measured:
[1] = test system: MCF-7 breast cancer cells; experiment: MCF-7 breast cancer cell culture viability, Alamar Blue assay; type: cell-based, human; details: for inhibition of cell proliferation (cell viability, Alamar Blue): MCF-7, 24 hours of incubation, dose-response; for inhibition of cell proliferation: MCF-7, 48 hours of incubation
Experimental: This system allows for replicated extended activity studies.
The bio-potency studies were done with a MCF-7 breast cancer cell culture system and the cell viability as a measure of survival was assessed using the Alamar Blue assay. The percent difference in the Alamar Blue optical density (OD) readings at 570 and 600 nm in the treated and untreated controls was determined. […] A dose-response study in quadruplicate cultures was performed. Cell viability was assessed after 24 and 48 hours of incubation with the activity agent.

[2] = test system: chorionic post-proline peptidase; experiment: Competitive inhibition of mammalian GnRH degradation by chorionic post-proline peptidase (enzymatic activity assay, RIA of remaining substrate); details: for relative potency of inhibition of chorionic post-proline peptidase activity compared to that for GnRH: substrate mammalian GnRH, GnRH = 1
Experimental: (§1) Using the incubation system developed for chorionic post-proline peptidase activity, the degradation of GnRH was tested. Each of these analogs (SEQ ID NO: 2, SEQ ID NO: 4 and SEQ ID NO: 7) were first studied for their ability to act as a competitive inhibitor of GnRH for chorionic post-proline peptidase activity using the enzymatic activity assay as described previously (103). […] The reaction was stopped by heating at 85° C. for 10 minutes. […] The product formed, i.e. the N-terminal nonapeptide of GnRH, was calculated by subtraction, and its inverse plotted against the inverse of the original substrate concentrations to determine the Ks of the competition. The Ki was determined by plotting the inverse of the product that formed versus the inhibitor used.

[3] = test system: GnRH receptors on the cells of MCF-7 breast cancer cells; experiment: Competitive binding of I^125-D-Arg(6)-Chicken II GnRH-aza-Gly(10)-amide to MCF-7 breast cancer cells; design: species or system human; details: for competitive inhibition of I^125-D-Arg(6)-Chicken II GnRH-aza-Gly(10)-amide binding (rank of potency): MCF-7 cells, 24 hours at room temperature; for receptor potency (in words): receptor test not given
Experimental: GnRH receptors on the cells of MCF-7 breast cancer cells were studied. The cells were plated on 96 wells and grown to confluency in base medium (M3D:Fetal Bovine Serum [9:1]). Prior to the experiment the cells were down shifted to M3D:Fetal Bovine Serum [99:1] and then to serum-free medium. […] Addition of enzyme inhibitors of the endogenous post-proline peptidase and other peptidases were used as well as agents for receptor stabilization. Receptor bound label was separated by centrifugation. The binding of the non-mammalian GnRH analog and its ability to regulate the tumor cells' GnRH receptor was compared. […] This was followed by Buserilin. […] This indicated the high innate affinity of this isoform of GnRH for the tumor GnRH receptor. It is believed by Applicants that the same or similar results could be obtained using other non-mammalian GnRH isomers or analogs with similar amino acid structure as Chicken II GnRH such as but not limited to Salmon GnRH, Herring GnRH, Catfish GnRH, or Dogfish GnRH.

[4] = test system: MCF-7 breast cancer cells; experiment: Degradation of GnRH and analogs by tumor tissue cells, with or without peptidase inhibitors; type: in vitro ADME, human
Source text: Post-Proline Peptidase Stability Studies: As mentioned earlier, the post-proline peptidase is important in actively degrading peptides that contain a proline residue. GnRH is such a peptide. Initially the enzymatic activity of the tumor cell was studied. Tumor tissue cells and their spent media were studied for enzyme activity. In particular, examination was made for the degradation of GnRH both with and without specific post-proline and endopeptidase activity inhibitors to determine the specificity of the tumor enzymatic activity.
Chorionic post-proline peptidase is a peptidase with high specificity for the degradation of GnRH at the proline-glycine bond, but can also degrade other GnRH species containing this bond.

[5] = test system: chorionic post-proline peptidase
Experimental: as §1

CCNC(=O)[C@@H]1CCCN1C(=O)[C@H](CCCNC(=N)N)NC(=O)[C@H](CC(C)C)NC(=O)[C@@H](COC(C)(C)C)NC(=O)[C@H](Cc1ccc(O)cc1)NC(=O)[C@H](CO)NC(=O)[C@H](Cc1c[nH]c2ccccc12)NC(=O)[C@H](Cc1cnc[nH]1)NC(=O)[C@@H]1CCC(=O)N1 [Buserilin]
inhibition of cell proliferation (cell viability, Alamar Blue) [1]: totally inactive
degradation by chorionic post-proline peptidase (in words) [2]: competitively inhibited the degradation of mammalian GnRH

N=C(N)NCCC[C@@H](NC(=O)[C@H](Cc1c[nH]cn1)NC(=O)[C@H](CO)NC(=O)[C@H](Cc1c[nH]c2ccccc12)NC(=O)[C@H](Cc1c[nH]cn1)NC(=O)[C@@H]1CCC(=O)N1)C(=O)N[C@@H](Cc1c[nH]c2ccccc12)C(=O)N[C@@H](Cc1ccc(O)cc1)C(=O)N1CCC[C@H]1C(=O)NNC(N)=O [D-Arg(6)-Chicken II GnRH-aza-Gly(10)-amide] (HELM PEPTIDE1{[Glp].H.W.S.H.[dR].W.Y.P.[O=C(NN[*:1])[*:2]].[am]}$$$$V2.0)
binding of I^125-labelled analog to MCF-7 breast cancer cells ([3]; 24 hours of incubation, no exogenous GnRH): specifically bound the MCF-7 breast cancer cells
competitive inhibition of I^125-D-Arg(6)-Chicken II GnRH-aza-Gly(10)-amide binding (rank of potency) [3]: greatest potency
receptor potency (in words) [3]: increased receptor potency
inhibition of cell proliferation (cell viability, Alamar Blue) [1]: positive dose-related activity
inhibition of cell proliferation at 10^−5 M ([1]; MCF-7, 24 hours, 10^−5 M): markedly active
inhibition of cell proliferation [1]: equally as potent as at 24 hours
degradation by chorionic post-proline peptidase (in words) [2]: resistant to degradation

CCNC(=O)[C@@H]1CCCN1C(=O)[C@H](CCCNC(=N)N)NC(=O)[C@H](CC(C)C)NC(=O)[C@@H](CC(C)C)NC(=O)[C@H](Cc1ccc(O)cc1)NC(=O)[C@H](CO)NC(=O)[C@H](Cc1c[nH]c2ccccc12)NC(=O)[C@H](Cc1c[nH]cn1)NC(=O)[C@@H]1CCC(=O)N1 [Leuprolide]
inhibition of cell proliferation (cell viability, Alamar Blue) [1]: totally inactive

CC[C@H](C)[C@H](N)C1=N[C@H](C(=O)N[C@@H](CC(C)C)C(=O)N[C@H](CCC(=O)O)C(=O)N[C@H](C(=O)N[C@H]2CCCCNC(=O)[C@H](CC(N)=O)NC(=O)[C@@H](CC(=O)O)NC(=O)[C@H](Cc3cnc[nH]3)NC(=O)[C@@H](Cc3ccccc3)NC(=O)[C@H]([C@@H](C)CC)NC(=O)[C@@H](CCCN)NC2=O)[C@@H](C)CC)CS1 [bacitracin] (HELM PEPTIDE1{[CC[C@H](C)[C@H](N)C1=N[C@H](C(=O)[*:2])CS1].L.[dE].I.K.[NCCC[C@@H](N[*:1])C(=O)[*:2]].I.[dF].H.[dD].N}$PEPTIDE1,PEPTIDE1,5:R3-11:R2$$$V2.0)
inhibition of the degradation of mammalian GnRH in tumor cell extracts ([4]; specific inhibitors of post-proline peptidase): inhibited

Antide
degradation by chorionic post-proline peptidase (in words) [2]: degraded with reduced activity
potency as competitor for chorionic post-proline peptidase compared to GnRH (in words) [2]: three fold less potent than GnRH
relative potency of inhibition of chorionic post-proline peptidase activity compared to that for GnRH [2]: 0.6

Im-btl-D-His(6)-GnRH-ethylamide
receptor potency (in words) [3]: reduced receptor potency

Mammalian GnRH: mammalian gonadotropin releasing hormone decapeptide
competitive inhibition of I^125-D-Arg(6)-Chicken II GnRH-aza-Gly(10)-amide binding (rank of potency) [3]: weakest competitor
degradation of mammalian GnRH by the tumor tissue cells ([4]; after overnight incubation): ~100%
inhibition of cell proliferation [1]: totally ineffective
degradation by chorionic post-proline peptidase (in words) [5]: actively degraded

OH-Pro(9)-GnRH
relative potency of inhibition of chorionic post-proline peptidase activity compared to that for GnRH [2]: 1.5

des-Gly(10), D-Trp(6)-GnRH ethylamide
degradation by chorionic post-proline peptidase (in words) [2]: competitively inhibited the degradation of mammalian GnRH

des-Gly(10)-D-Leu(6)-GnRH ethylamide
degradation by chorionic post-proline peptidase (in words) [2]: competitively inhibited the degradation of mammalian GnRH

des-Gly(10)-GnRH ethylamide
degradation by chorionic post-proline peptidase (in words) [2]: competitively inhibited the degradation of mammalian GnRH
